Experimental data taken from patent US20020054880A1, “Anti-inflammatory, tolerogenic and immunoinhibiting properties of carbohydrate binding-peptides” (priority 1992, published 2002).

Assays:
[1] = biological target: T1, ACS2P1-biotin binding to fetuin (Bordetella pertussis, UniProt P04978, G45S); settings: saccharide 8 mM; n=3
T1 construct: 2; ACS2P1-b; 9-23; made in house; host or cells: chemical synthesis

[2] = biological target: T2, ACS2P1-biotin binding to fetuin (Bordetella pertussis, UniProt P04978); settings: saccharide 8 mM in PBS; 0.1 μg ACS2P1-biotin; fetuin 3 μg/ml; + enhancement, − inhibition
T2 construct: 2; ACS2P1-b; 9-23; made in house; host or cells: chemical synthesis

[3] = biological target: SPYGRC-biotin binding to fetuin (Bordetella pertussis, UniProt P04978); assay: Inhibition of SPYGRC-biotin binding to fetuin by simple saccharides; settings: saccharide 8 mM in PBS, 0.5 μg SPYGRC-biotin, fetuin 3 μg/ml, + enhancement
Description: Binding inhibition assays were done using sialic acid, sialyllactose, lactose, or N-acetyl-glucosamine at a concentration of 8 mM in PBS. […] The pH of free sialic acid was carefully monitored and adjusted to physiological pH values with dilute sodium hydroxide.

[4] = biological target: T3, ACS2P1-biotin binding to asialofetuin (Bos taurus, UniProt P12763); assay: Screening of S2 and S3 peptides for inhibition of ACS2P1-biotin binding to asialofetuin; settings: for Percent Change in Binding Activity Asialofetuin: peptide μM: ACS2P1 4.1, S2P2 42.5, SPYGRC 5520, S2P3 22.4, S2P4 6.0, S2P6 319, S3P1 1142, S3P2 934, S3P3 16.1, S3P4 6.4, S3P5 22.5, ACS2P1-biotin 0.1 μg, − inhibition, + enhancement
T3 construct: made in house
T3 sequence (P12763 19-359): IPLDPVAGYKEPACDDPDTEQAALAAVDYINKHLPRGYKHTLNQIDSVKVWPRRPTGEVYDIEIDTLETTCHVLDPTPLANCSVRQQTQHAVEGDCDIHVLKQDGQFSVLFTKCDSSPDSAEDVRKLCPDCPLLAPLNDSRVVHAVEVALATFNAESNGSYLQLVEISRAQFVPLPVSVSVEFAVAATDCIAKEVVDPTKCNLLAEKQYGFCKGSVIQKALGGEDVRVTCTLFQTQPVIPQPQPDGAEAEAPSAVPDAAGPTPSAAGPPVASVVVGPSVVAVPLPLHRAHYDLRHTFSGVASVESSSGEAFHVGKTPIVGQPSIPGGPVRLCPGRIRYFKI

[5] = biological target: T4, ACS2P1-biotin binding to fetuin (Bos taurus, UniProt P12763); assay: biochemical; settings: for Percent Change in Binding Activity Fetuin: peptide μM: ACS2P1 4.1, S2P2 42.5, SPYGRC 5520, S2P3 22.4, S2P4 6.0, S2P6 319, S3P1 1142, S3P2 934, S3P3 16.1, S3P4 6.4, S3P5 22.5, ACS2P1-biotin 0.1 μg, − inhibition, + enhancement
T4 construct: purchased Sigma Chemical Company
T4 sequence (P12763 19-359): T3 sequence (P12763 19-359)

[6] = biological target: T5, SNA-biotin binding to fetuin (Bos taurus, UniProt P12763); assay: biochemical; settings: peptide mg/mL: S2PL 1.2, ACS2P1 1.0, S2(14-2.3) 1.0, S2P2 1.1, S2P3 0.51, S2P4 0.98, S2P6 0.85, S3P1 3.2, S3P2 3.1, S3P3 4.5, S3P4 3.3, S3P5 0.48, S3P9a 1.7, SPYGRC 4.4, S2(WGA) 1.0, WGA (62-73) 1.0; + enhancement, − inhibition
T5 sequence (P12763 19-359): T3 sequence (P12763 19-359)
Description: (§1) The solution was removed by aspiration and replaced with 100 μl of 1% BSA in PBS containing 0.05% Tween 20 (PBST). After incubation for 2-4 hours at room temperature, the microtiter wells were washed four times with 300 μl of PBST. Peptides ranging in concentration from 0.5 to 4.5 mg/ml in PBS (40 μl) were added to each well and PT-biotin (10 μl containing 10 ng in PBS) was then added to the microtiter wells. After incubating for 1 hour, the binding reaction was stopped by aspirating the solutions and the plate was washed with PBST (300 μl). Horseradish peroxidase-conjugated avidin (100 μl, 1/3000 dilution in PBST to a concentration of 0.3 μg/ml) was then added to the wells, and the plates were incubated at ambient temperature for 1 hour. After washing the wells as described above, the substrate solution [1 mM ABTS in 5 mM citrate buffer, pH 4.2, containing 0.1% hydrogen peroxide, v/v) was added and the plates were incubated for 30 minutes. Color development was recorded at 405 nm using a Titertek Multiskan MC plate reader. Maximum binding was determined in the absence of peptide, and background binding was measured in wells coated with BSA only. Binding assays for each peptide were done in duplicate. Binding inhibition experiments utilizing SNA-, WGA-, and MAL-biotin were performed as described above using 10 ng of each biotinylated lectin in PBS.

[7] = biological target: T6, WGA-biotin binding to fetuin (Bos taurus, UniProt P12763); assay: biochemical; settings: peptide mg/mL: S2PL 1.2, ACS2P1 1.0, S2(14-2.3) 1.0, S2P2 1.1, S2P3 0.51, S2P4 0.98, S2P6 0.85, S3P1 3.2, S3P2 3.1, S3P3 4.5, S3P4 3.3, S3P5 0.48, SPYGRC 4.4, S2(WGA) 1.0, WGA (62-73) 1.0; + enhancement, − inhibition
T6 sequence (P12763 19-359): T3 sequence (P12763 19-359)
Description: as §1

[8] = biological target: T7, PT-biotin binding to fetuin (Bos taurus, UniProt P12763); assay: PT-biotin binding to fetuin, binding inhibition assay; parameters: species or system Bordetella pertussis; settings: for Percent Changes in Binding Activity PT/fetuin: peptide mg/mL: S2PL 1.2, ACS2P1 1.0, S2(14-2.3) 1.0, S2P2 1.1, S2P3 0.51, S2P4 0.98, S2P6 0.85, S3P1 3.2, S3P2 3.1, S3P3 4.5, S3P4 3.3, S3P5 0.48, S3P9a 1.7, SPYGRC 4.4, S2(WGA) 1.0, WGA (62-73) 1.0, + enhancement, − inhibition
T7 construct: purchased Sigma Chemical Company (fetuin); Connaught Center for Biotechnology Research (PT)
T7 sequence (P12763 19-359): T3 sequence (P12763 19-359)
Description: (§2) Peptides ranging in concentration from 0.5 to 4.5 mg/ml in PBS (40 μl) were added to each well and PT-biotin (10 μl containing 10 ng in PBS) was then added to the microtiter wells. […] Horseradish peroxidase-conjugated avidin (100 μl, 1/3000 dilution in PBST to a concentration of 0.3 μg/ml) was then added to the wells, and the plates were incubated at ambient temperature for 1 hour. […] Color development was recorded at 405 nm using a Titertek Multiskan MC plate reader. […] Binding assays for each peptide were done in duplicate. Binding inhibition experiments utilizing SNA-, WGA-, and MAL-biotin were performed as described above using 10 ng of each biotinylated lectin in PBS.
(§3) Binding assays for each inhibitor concentration were done at least in duplicate, and the average value varied less than 15%.

[9] = test system: pertussis toxin binding to Chinese Hamster ovary (CHO) cell; assay: CHO cell neutralization of pertussis toxin (cell clumping); assay type: cell-based; settings: PT 2.4 ng/ml, peptide and PT 1 hour, triplicate
Description: Confluent monolayers of CHO cells were lifted from plastic tissue culture flasks with 0.25% trypsin and suspended at a concentration of 5×10^4 cells/ml in Ham's F12 media containing 10% fetal bovine serum (FBS). 100 μl of the cell suspension was added to 96 well tissue culture plates and were allowed to establish contact with the plastic for 24 to 48 hours. The expended media was then removed and filtered-sterilized peptide 5-fold dilutions ranging in concentration from 300 to 30 femptogram per ml (80 μl) in Ham' F12 media containing FBS were added to the CHO cells. […] The incubation mixtures were gently mixed and incubated at 37° C. for 1 hour in a CO2 incubator. The incubation mixtures were then removed and replaced with fresh media. The tissue culture plates were then incubated for 24 hours at 37° C., fixed with 100% methanol, and stained with Geimsa stain. Control experiments were done in the absence of peptide alone or in the absence of PT. All determinations were done in triplicate. […] The results reported in Table VIII show the maximum peptide concentration required to cause a 50% reduction in CHO cell clumping.

[10] = biological target: T8, MAL-biotin binding to fetuin (Bos taurus, UniProt P12763); assay: MAL-biotin binding to fetuin, binding inhibition assay; parameters: species or system Maackia amurensis; settings: peptide mg/mL: S2PL 1.2, ACS2P1 1.0, S2(14-2.3) 1.0, S2P2 1.1, S2P3 0.51, S2P4 0.98, S2P6 0.85, S3P1 3.2, S3P2 3.1, S3P3 4.5, S3P4 3.3, S3P5 0.48, S3P9a 1.7, SPYGRC 4.4, S2(WGA) 1.0, WGA (62-73) 1.0; + enhancement, − inhibition
T8 construct: purchased Sigma Chemical Company (fetuin); Boehringer Mannheim (MAL-biotin)
T8 sequence (P12763 19-359): T3 sequence (P12763 19-359)
Description: as §2, §3

[11] = biological target: T9, PT-biotin binding to asialofetuin (Bos taurus, UniProt P12763); assay: PT-biotin binding to asialofetuin, binding inhibition assay; parameters: species or system Bordetella pertussis; settings: peptide mg/mL: S2PL 1.2, ACS2P1 1.0, S2P2 1.1, S2P3 0.51, S2P4 0.98, S2P6 0.85, S3P1 3.2, S3P2 3.1, S3P3 4.5, S3P4 3.3, S3P5 0.48, SPYGRC 4.4; + enhancement, − inhibition
T9 construct: made in house
T9 sequence (P12763 19-359): T3 sequence (P12763 19-359)
Description: as §2, §3

Compound | Percent Changes in Binding Activity ACS2P1-biotin (n = 3) [2] | Percent Changes in Binding Activity SPYGRC-biotin (n = 3) [3] | Percent Change in Binding Activity Asialofetuin [4] | Percent Change in Binding Activity Fetuin [5] | Percent Changes in Binding Activity SNA/fetuin [6] | Percent Changes in Binding Activity WGA/fetuin [7] | Percent Changes in Binding Activity PT/fetuin [8] | Maximal Inhibitory Concentration for Greater than 50% Inhibition [9] | Percent Changes in Binding Activity MAL/fetuin [10] | Percent Changes in Binding Activity PT/asialo-fetuin [11] | further results
OC[C@H]1O[C@@H](O[C@H]2[C@H](O)[C@@H](O)C(O)O[C@@H]2CO)[C@H](O)[C@@H](O)[C@H]1O (some centres unmarked) [Lactose] | +74 ± 7% | +20 ± 11% | – | – | – | – | – | – | – | – | inhibition of the binding of biotinylated peptide (ACS2P1-biotin) to fetuin [1]: failed to reduce the binding of ACS2P1-biotin
CC(=O)N[C@H]1C(O)O[C@H](CO)[C@@H](O)[C@@H]1O (some centres unmarked) [N-Acetylglucosamine] | −10 ± 2% | +6 ± 5% | – | – | – | – | – | – | – | – | inhibition of the binding of biotinylated peptide (ACS2P1-biotin) to fetuin [1]: 10±2%
CC[C@H](C)[C@H](NC(=O)CNC(=O)[C@@H]1CCCN1C(=O)[C@@H](NC(=O)[C@@H](N)CO)[C@@H](C)O)C(=O)N[C@H](C(=O)N[C@H](C(=O)N1CCC[C@H]1C(=O)N1CCC[C@H]1C(=O)N[C@@H](CCC(N)=O)C(=O)N[C@@H](CCC(=O)O)C(=O)N[C@@H](CCC(N)=O)C(=O)N[C@H](C(=O)N[C@H](C(=O)N[C@@H](CCC(N)=O)C(=O)N[C@@H](Cc1c[nH]cn1)C(=O)NCC(=O)N[C@@H](CO)C(=O)N1CCC[C@H]1C(=O)N[C@@H](Cc1ccc(O)cc1)C(=O)NCC(=O)N[C@@H](CCCNC(=N)N)C(=O)N[C@@H](CS)C(=O)O)[C@@H](C)O)[C@@H](C)CC)[C@@H](C)CC)C(C)C [Peptide S2P2] | – | – | +6 ± 1% | −50% | −1 ± 1% | −15 ± 2% | +58 ± 4% | NI (Not inhibitory at a peptide concentration of 300 ng/ml.) | +14 ± 2% | +33(1) Percent | competition for the binding of ACS2P1-biotin to asialofetuin, in words [4]: unable to compete for the binding of ACS2P1-biotin to asialofetuin; IC50 [5]: 42.5 µM; decrease in affinity relative to ACS2P1 ([5]; from IC50 values): 10 fold; effect on PT-biotin binding to fetuin, in words [8]: enhancement of binding of PT to fetuin; enhancement of PT-biotin binding to fetuin relative to control experiments in the absence of peptide ([8]; initial peptide screening): ~2 fold
CC(=O)N[C@H]1[C@H]([C@H](O)[C@H](O)CO)OC(O)(C(=O)O)C[C@@H]1O (some centres unmarked) [Sialic acid] | – | +9 ± 8% | – | – | – | – | – | – | – | – | –
OC[C@H]1O[C@@](CO)(O[C@H]2O[C@H](CO)[C@@H](O)[C@H](O)[C@H]2O)[C@@H](O)[C@@H]1O [Sucrose] | 0 ± 3% | – | – | – | – | – | – | – | – | – | –
PKALFTQQGGAYGRC [Peptide S3P1] | – | – | +4 ± 0% | +245 ± 28% | −2 ± 1% | −9 ± 4% | +54 ± 25% | NI (Not inhibitory at a peptide concentration of 300 ng/ml.) | +4 ± 6% | +45 ± 16% | inhibition of ACS2P1-biotin binding to fetuin, in words [5]: inability
Sialyllactose | −46 ± 3% | −24 ± 6% | – | – | – | – | – | – | – | – | –
VAPGIVIPPKALFTQQGGAYGRC [Peptide S3P2] | – | – | +12 ± 16% | +88 ± 72% | +3 ± 3% | +9 ± 4% | +77 ± 59% | NI (Not inhibitory at a peptide concentration of 300 ng/ml.) | +12 ± 16% | +82 ± 11% | inhibition of ACS2P1-biotin binding to fetuin, in words [5]: inability
